Data on six molecules can be found in publication PMC4791575 (ACS Infectious Diseases, 2016).

One data set concerns P. falciparum D6. The data set is described as follows: microbe, parasite or virus in culture. The format is cell-based, Plasmodium falciparum. Particulars: for EC50: Plasmodium falciparum, D6, read-out: P. falciparum D6 pEC50 (converted).
The subject of data set [1] is L. major intracellular amastigotes. The data set is described as follows: microbe, parasite or virus in culture. The format is cell-based, Leishmania major. To be noted: for EC50: Leishmania major, read-out: Leishmania Amast pEC50 (converted).
The test system of the next data set is 3T3. The data set is described as follows: 3T3 host cell toxicity. It is filed as cell-based.
The next data set has as its system HepG2 cells. The data set is described as follows: HepG2 host cell toxicity assay. The format is cell-based. To be noted: HepG2, purchased inhibitors, Table 3.
Data set [2] concerns T. cruzi intracellular amastigotes (Tulahuen strain). Put plainly: microbe, parasite or virus in culture. To be noted: for EC50: Trypanosoma cruzi, TULAHUEN, read-out: T. cruzi pEC50 (μM) (within 21%) (converted). The format is cell-based, Trypanosoma cruzi.
Another data set has as its system L. major promastigotes. Put plainly: microbe, parasite or virus in culture. The format is cell-based, Leishmania major. To be noted: for EC50: Leishmania major, read-out: Leishmania Promast pEC50 (converted).
A further data set has as its system T. brucei cells. Put plainly: microbe, parasite or virus in culture. To be noted: for EC50: Trypanosoma brucei, read-out: T. brucei pEC50 (within 46%) (converted). It is filed as cell-based, Trypanosoma brucei.
For the next data set, the system named is P. falciparum C235. The data set is described as follows: microbe, parasite or virus in culture. It is filed as cell-based, Plasmodium falciparum. Particulars: for EC50: Plasmodium falciparum, read-out: P. falciparum C235 pEC50 (converted).
The test system of another data set is P. falciparum W2. The data set is described as follows: microbe, parasite or virus in culture. Particulars: for EC50: Plasmodium falciparum, W2, read-out: P. falciparum W2 pEC50 (converted). It is filed as cell-based, Plasmodium falciparum.
For data set [3] the following is noted: HAT patients; cited from earlier work.

A value given as a limit tells only on which side of the number the result lay.

For `Nc1cccc(-c2cc3c(Oc4cccc(O)c4)ncnc3[nH]2)c1` [NEU-989, TWS11925], the “P. falciparum D6 pEC50” value in the data set on P. falciparum D6 (D6 strain) is on record as 5.0. The “Leishmania Amast pEC50” value in data set [1] (L. major intracellular amastigotes) is on record as less than 4.8. Further, the “host cell tox 3T3 pTC50” value in the data set on 3T3 is listed as 4.4. Also, the “host cell tox HepG2 pTC50” value in the data set on HepG2 cells is on record as less than 4.4. Further, the T. cruzi pEC50 (within 21%) in data set [2] (intracellular amastigotes, Tulahuen strain) was less than 4.3. In addition, the “Leishmania Promast pEC50” value with L. major promastigotes (L. major promastigotes) is 4.7. In addition, in the data set on T. brucei cells (purchased inhibitors, Table 3), the “T. brucei pEC50 (within 46%)” value worked out at 6.0. The “P. falciparum C235 pEC50” value with P. falciparum C235 (C235) came to 5.1. Moreover, the “P. falciparum W2 pEC50” value in the data set with P. falciparum W2 (W2) was determined as 4.7.

`Cn1cc(C2=C(c3ccc(Cl)cc3Cl)C(=O)NC2=O)c2ccccc21` [NEU-990, SB 21676322]: the EC50 is more than 20 µM in the data set with P. falciparum D6; more than 15.8 µM in data set [1]; more than 50.1 µM in data set [2]; 2.51 µM in the data set on L. major promastigotes; more than 3.16 µM in the data set with T. brucei cells; more than 20 µM with P. falciparum C235. The EC50 with P. falciparum W2 was more than 20 µM. Moreover, in the data set with 3T3, the “host cell tox 3T3 pTC50” value was less than 4. In addition, in the data set on HepG2 cells, the “host cell tox HepG2 pTC50” value is listed as less than 4.4.

`O=c1sn(-c2cccc3ccccc23)c(=O)n1Cc1ccccc1` [NEU-991, tideglusib]: the EC50 with P. falciparum D6 is 25.1 µM; in [1], more than 15.8 µM; in [2] it was 20 µM; with L. major promastigotes, 0.316 µM; with T. brucei cells, more than 3.16 µM; in the data set with P. falciparum C235 it was 20 µM. Besides, the EC50 in the data set on P. falciparum W2 was 25.1 µM. In the data set with 3T3, the “host cell tox 3T3 pTC50” value was 4.1. In addition, in the data set on HepG2 cells, the “host cell tox HepG2 pTC50” value was less than 4.4.

Regarding `CC(C)CC(=O)Nc1[nH]nc2c1CN(C(=O)C1CCN(C)CC1)C2(C)C` [NEU-1007, PHA-79388727], the EC50 in the data set on P. falciparum D6 was 2 µM; in [1] it was more than 15.8 µM; in data set [2] it was more than 50.1 µM; with L. major promastigotes it was more than 25.1 µM; in the data set on T. brucei cells it was 2 µM; with P. falciparum C235 it was 2.51 µM. Besides, the EC50 in the data set on P. falciparum W2 is 2.51 µM. Besides, in the data set on 3T3, the “host cell tox 3T3 pTC50” value is listed as less than 4. Moreover, in the data set with HepG2 cells, the “host cell tox HepG2 pTC50” value is listed as less than 4.4.

Take `COc1ccc2c(c1)[nH]c1c(C)nccc12` [NEU-1049, harmine]: the EC50 in the data set on P. falciparum D6 was more than 20 µM; in data set [1] it was 1.26 µM; in data set [2], 15.8 µM; in the data set on L. major promastigotes, 1.26 µM; with T. brucei cells it was more than 3.16 µM; in the data set with P. falciparum C235, more than 20 µM. The EC50 in the data set with P. falciparum W2 was more than 20 µM. The “host cell tox 3T3 pTC50” value in the data set with 3T3 is less than 4. In the data set on HepG2 cells, the “host cell tox HepG2 pTC50” value is recorded as less than 5.1.

With `Nc1nc(N)nc(Nc2ccc([As]3SCC(CO)S3)cc2)n1` (stereo not shown) [melarsoprol], the “mortality rate of melarsoprol treatment” value in [3] is not below 5%.
